{
  "source": "patent US9771625B2",
  "about": "“Monoamine oxidase inhibitors and methods for treatment and diagnosis of prostate cancer” (UNIVERSITY OF SOUTHERN CALIFORNIA, priority 2011, dated 2017)",
  "key": {"MAO A": {"target": "T1, MAO A (Homo sapiens, UniProt P21397)", "T1 construct": "This cell line was selected due to its high levels of the expressed MAO-A; endogenous in cells; host or cells: C4-2B human prostate cancer cells", "T1 sequence (P21397 1-527)": "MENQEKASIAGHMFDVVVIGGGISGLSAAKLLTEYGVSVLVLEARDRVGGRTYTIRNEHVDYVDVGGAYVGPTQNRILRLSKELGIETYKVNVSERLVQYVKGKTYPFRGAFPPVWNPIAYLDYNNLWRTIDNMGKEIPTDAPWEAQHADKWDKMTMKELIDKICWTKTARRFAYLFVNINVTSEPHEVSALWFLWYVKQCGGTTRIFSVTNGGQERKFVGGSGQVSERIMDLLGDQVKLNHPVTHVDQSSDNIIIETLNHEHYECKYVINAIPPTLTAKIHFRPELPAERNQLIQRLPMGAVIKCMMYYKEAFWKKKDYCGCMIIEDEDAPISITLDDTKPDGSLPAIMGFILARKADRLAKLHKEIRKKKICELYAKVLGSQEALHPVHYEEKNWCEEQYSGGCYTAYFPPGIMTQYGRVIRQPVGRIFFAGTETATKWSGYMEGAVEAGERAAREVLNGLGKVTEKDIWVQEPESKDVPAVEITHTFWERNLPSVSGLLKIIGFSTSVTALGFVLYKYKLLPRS", "experiment": "MAO A inhibition assay in C4-2B cells with radiolabeled substrate (C-14 serotonin)", "type": "cell-based", "procedure": "Compound 10 was pre-incubated with 1×10^6 prostate C4-2B cells at 37° C. for 20 min. Then, MAO A substrate C-14 serotonin was added to the incubation solution for 37° C. 20 min. At the end of the incubation, the reaction product was extracted and the radioactivity was counted. The MAO-A activity was expressed as […] product formed/20 min/mg protein. The activity without the presence of inhibitor, compound 10, was taken as 100%.\nIn order to test an inhibitory activity of the MHI-clorgyline 10, a standard MAO A inhibition assay was carried out in C4-2B cells using radiolabeled substrates."}, "[1]": {"system": "C4-2B prostate cancer cells", "experiment": "Laser-scanning confocal NIR imaging of cellular uptake and localization", "type": "cell-based, human", "details": "C4-2B PCa cells", "excerpt": "Moreover, the two dyes also have strong emission at 820-860 nm upon excitation at 750-780 nm, which can be easily detected and visualized by NIR imaging equipment and laser-scanning confocal microscopes. Here, we resorted to the use of Zeiss LSM 510 confocal microscope as the imaging equipment. Although cellular uptake of the conjugate was uncertain, due to the similarity in structure, MHI-clorgyline conjugates were expected to have similar fluorescence properties as the NIR dye itself. Therefore, NIR imaging with laser-scanning confocal microscope was used to examine the cellular uptake of MHI-clorgyline in human prostate epithelial cancer cells (C4-2B). This cell line was selected due to its high levels of the expressed MAO-A.\n(§1) An imaging study with the newly synthesized MHI-clorgyline 10 was carried out (FIG. 11)."}, "[2]": {"system": "tumor xenografts and spontaneous tumors in transgenic mice", "details": "cited from earlier work"}, "live cells": {"system": "live cells", "experiment": "Preliminary imaging study of IR-783 dye in live cells", "type": "cell-based", "procedure": "as §1"}, "[3]": {"system": "control and MAO-A-overexpressing PC-3 tumor xenografts", "experiment": "In vivo and ex vivo MHI-148 NIR imaging of PC-3 tumor xenografts", "set-up": "species or system nude mice", "excerpt": "FIG. 19 MAO-A enhanced NIR dye uptake in PC-3 tumor xenografts. (A) Representative in vivo MHI-148 NIR imaging (i.p. injection, 10 nmol/20 g) of nude mice subcutaneously implanted with control (left flank) and MAO-A-overexpressing (right flank) PC-3 cells. Arrows point to tumor xenografts. […] (C) Quantitation of tumor NIR intensity in (A) by determining total emission divided by tumor weight (5 mice). *, p<0.05.\nA class of fluorescent heptamethine cyanines with near-infrared (NIR) emission maxima, such as MHI-148 dye, which has been identified recently, are non-toxic and have dual functions as tumor-specific targeting and imaging modalities. These dyes, partially mediated by hypoxia, are specifically retained in cancer but not normal cells, and also in tumor xenografts as well as spontaneous tumors in transgenic mice. […] This would allow the development and validation of novel PCa-seeking MAO-A inhibitors with acquired synergistic tumor-targeting abilities as new agents for PCa therapies with minimal systemic host toxicity."}, "tumor xenografts": {"system": "tumor xenografts", "experiment": "Growth of tumor xenografts in vivo", "excerpt": "(§2) In the present invention, it was unexpectedly discovered that increase of MAO-A activity or expression is correlated with the progression of human prostate cancer. […] This finding establishes MAOs as a target for cancer."}, "[4]": {"system": "human prostate cancer cells", "experiment": "Growth of prostate cancer cells in vitro", "type": "cell-based", "excerpt": "as §2"}},
  "note": "pIC50: −log10 of the molar value.",
  "data": [
    {"smiles": "C#CCN(CCCOc1ccc(Cl)cc1Cl)CCCSC(=O)CCCCCN1/C(=C\\C=C2/CCCC(/C=C/C3=[N+](CCCCCC(=O)O)c4ccccc4C3(C)C)=C2Cl)C(C)(C)c2ccccc21", "note": "[Compound 10]", "values": [
      {"measurement": "pIC50", "setting": "MAO A; 37° C., 20 min pre-incubation, C-14 serotonin substrate", "result": 4.66},
      {"measurement": "MAO A inhibitory activity compared with clorgyline", "setting": "MAO A; data not shown", "result": "lesser than that of clorgyline itself"},
      {"measurement": "subcellular localization", "setting": "[1]; co-staining with mitochondria-specific dye", "result": "localized in the mitochondria"},
      {"measurement": "cellular accumulation", "setting": "[1]; confocal imaging", "result": "rapid accumulation"}
    ]},
    {"smiles": "CC1(C)C(=CC=C2CCCC(C=CC3=[N+](CCCCS(=O)(=O)[O-])c4ccccc4C3(C)C)=C2Cl)N(CCCCS(=O)(=O)[O-])c2ccccc21.[Na+]", "note": "[IR-783]", "values": [
      {"measurement": "retention in cancer cells versus normal cells", "setting": "[2]", "result": "retained in cancer cells but not normal cells"},
      {"measurement": "subcellular localization", "setting": "live cells", "result": "co-localized in mitochondria"}
    ]},
    {"smiles": "CC1(C)C(/C=C/C2=C(Cl)C(=C/C=C3/N(CCCCCC(=O)O)c4ccccc4C3(C)C)/CCC2)=[N+](CCCCCC(=O)O)c2ccccc21", "note": "[MHI-148]", "values": [
      {"measurement": "retention in cancer cells versus normal cells", "setting": "[2]", "result": "retained in cancer cells but not normal cells"},
      {"measurement": "NIR dye uptake in tumor xenografts", "setting": "[3]; MAO-A-overexpressing vs control PC-3 xenografts, i.p. injection, 10 nmol/20 g", "result": "enhanced uptake"},
      {"measurement": "ex vivo NIR signal in tumor tissues versus organs", "setting": "[3]; ex vivo NIR imaging, nude mice with PC-3 xenografts", "result": "Tumor tissues but not organs displayed strong signals"}
    ]},
    {"smiles": "C#CCN(C)CCCOc1ccc(Cl)cc1Cl", "note": "[clorgyline]", "values": [
      {"measurement": "growth of tumor xenografts", "setting": "tumor xenografts", "result": "repressing the growth"},
      {"measurement": "growth of human prostate cancer cells", "setting": "[4]", "result": "repressing the growth"}
    ]}
  ]
}
